# From paper PMC2970562, “High-Affinity Inhibitors of Human NAD^+-Dependent 15-Hydroxyprostaglandin Dehydrogenase: Mechanisms of Inhibition and Structure-Activity Relationships” (PLoS ONE, 2010)
# Biological target: T1, human 15-PGDH (Homo sapiens, UniProt P15428)
# T1 construct: comprising residues 3–256 of the human HPGD gene (GenBank identifier: 1203982); His6 (GHHHHHH, behind the TEV site) (C, cleaved yes); made in house; host or cells: E. coli BL21(DE3)-R3
# T1 sequence (P15428 3-256): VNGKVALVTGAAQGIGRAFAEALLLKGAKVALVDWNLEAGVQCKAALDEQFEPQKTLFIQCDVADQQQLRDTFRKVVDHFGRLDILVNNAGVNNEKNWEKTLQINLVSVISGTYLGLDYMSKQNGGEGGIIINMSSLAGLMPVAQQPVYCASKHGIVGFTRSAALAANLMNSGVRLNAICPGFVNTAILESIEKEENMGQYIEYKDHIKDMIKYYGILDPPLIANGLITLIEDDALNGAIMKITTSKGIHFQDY
# Experiment: qHTS and 24-point re-test: fluorescence assay of NAD+ reduction to NADH on PGE2 oxidation (PubChem AID 894)
# Type: biochemical
# Conditions: potency in 24-point titrations on re-test; 20 nM 15-PGDH, 1 mM NAD+, 30 µM PGE2, pH 8.0
# Method: The assay was miniaturized to a 4-µL volume in 1536-well format: enzyme (3 µL) was dispensed first, followed by a pintool transfer of library compounds dissolved in DMSO. After equilibration, a substrate dispense (1 µL) initiated the enzymatic reaction (see Materials and Methods, for detailed protocol description). […] Hits associated with low-efficacy (<40% maximum inhibition), incomplete curves, as well as those displaying only a single-point inhibition at the top concentration tested were eliminated from further consideration. Similarly, the collection of real-time kinetic data allowed the autofluorescence of each compound to be evaluated by comparing the initial fluorescence read at top concentration with the mean value of uninhibited assay controls: compounds whose top-concentration initial well fluorescence exceeded six standard deviations over the mean were flagged as potential autofluorescent artifacts, [28] (see example in supplementary information Figure S1E). The complete screening and followup results are available in PubChem (PubChem Assay ID 894).
# The enzymatic reaction was performed in 50 mM Tris-HCl pH 8.0, containing 0.01% Tween 20. […] The high-throughput screen was performed on a fully integrated robotic system (Kalypsys Inc, San Diego, CA) as described elsewhere. Library compounds, arrayed as seven-point inter-plate concentration series, were screened from the lowest (3.5 nM) to the highest (57.5 µM) concentration, with plates containing DMSO only, serving to note any systematic drifts in the signal, interspersed evenly throughout the screen (approximately every 50 plates). Briefly, 3 µL of reagents were dispensed into 1536-well Greiner black solid-bottom assay plates using integrated nanoliter solenoid-technology dispensers. Compounds and controls (23 nL) were transferred via Kalypsys pintool equipped with 1,536-pin array (10-nL slotted pins; V&P Scientific, Palo Alto, CA). After a 15-minute incubation (to allow for interaction between compound and enzyme), a 1-µL substrate addition step initiated the reaction. Kinetic data were collected on a ViewLux High-throughput CCD imager (Perkin-Elmer) equipped with standard UV fluorescence optics (exc. 340 nm, em. 450 nm).
# Starting fluorescence intensity and the change in fluorescence over the two-minute initial rate period were recorded for every well. Screening data were normalized against no-enzyme (64 wells, columns 3 and 4) and no-compound (32 wells located in column 1) controls, and concentration-response relationships were derived as described previously. A four-parameter Hill equation [47] was fitted to the concentration-response data using publicly available algorithms (http://www.ncgc.nih.gov/pub/openhts/curvefit/).
row,qHTS IC50 [nM],Compound
1,Inactive,COc1ccc(N2CCN(C(=O)c3ccc(CSc4ccccc4)cc3)CC2)cc1 [Compound 6]
2,Inactive,Fc1ccccc1-c1nnc(SCCc2ccncc2)n1C1CC1 [Compound 24]
3,inactive,COCCNC(=O)C1CSC(c2ccccc2)N1C(=O)c1ccc(OC)c(OC)c1 (stereo not shown) [Compound 28]
4,inactive,CCNC(=S)NN=Cc1cccn1-c1ccccc1 [Compound 33]
5,Inactive,Cc1c(Cl)cccc1NC(=O)CNC(=O)c1cncn1-c1ccc(F)cc1 [Compound 38]
6,inactive,CC(C)(C)c1ccc(C(=O)O/N=C(\N)c2ccc(Cl)cc2)cc1 [Compound 39]
7,Inactive,Cc1ccc2nc(SCC(=O)N3CCCC[C@@H]3C)c(C#N)cc2c1 [Compound 49]

# Same assay, conditions: potency in 24-point titrations on re-test; 20 nM 15-PGDH, 1 mM NAD+, 30 µM PGE2, pH 8.0; read-out: qHTS IC50
row,Compound,IC50 [nM]
1,Cc1ccc(-c2nc3c4cnn(-c5cccc(Cl)c5)c4ncn3n2)cc1 [Compound 25],12600
2,Cc1ccc(CN(c2ccc(C(=O)N3CCc4ccccc4C3)cc2)S(C)(=O)=O)cc1 [Compound 26],11200
3,COc1ccc(OC)c(C=Cc2ccc(N3C(=O)C4CC=C5C(c6cc(Br)c(O)c(OC)c6)C6=C(CC5C4C3=O)C(=O)C=C(C)C6=O)cc2)c1 (stereo not shown) [Compound 27],15800
4,COc1ccc(NC(=O)c2sccc2S(=O)(=O)N2CCCCC2)c(OC)c1 [Compound 41],5010
5,O=C(O)c1cccc(Oc2cc(Cl)cc(Cl)c2)c1 [Compound 51],6310
6,O=C(O)c1ccc(Cl)c(Cl)c1Br [Compound 52],14100
7,O=C(NCCc1ccc(Cl)cc1)C1CCC(CNc2c(N3CCCCC3)c(=O)c2=O)CC1 (stereo not shown) [Compound 53],17800
8,COC(=O)CSc1nc2cc(Br)c(C)nc2[nH]1 [Compound 58],15800
9,CCc1nc(N2CCN(C(=O)c3ccco3)CC2)c(C#N)c2c1COC(C)(C)C2 [Compound 70],3160
10,CCNC(=O)c1ccc(CSc2ccc(Cl)cc2)cc1 [Compound 74],3980
11,N#Cc1c(NC(=O)COC(=O)C23CC4CC(CC(C4)C2)C3)sc2c1CCCCC2 [Compound 75],2510
12,Cc1ccc(NC(=O)COc2cccc(C=C(C#N)C(=O)Nc3cccc(Cl)c3C)c2)cc1C [Compound 77],14100
13,COc1ccc(/C=C2\SC(=O)N(CCNC(=O)c3ccc(Br)o3)C2=O)cc1OC [Compound 81],1580

# Now from value to compound:
row,IC50 [nM],Compound
1,282,CC(=O)Nc1ccc(NC(=O)CSc2nc3c(cc2C#N)CCC3)cc1 [Compound 10]
2,63,C=C[C@@]1(C)CCCC[C@H]1CC#CCCCC [Compound 15]
3,708,COc1ccc2ccccc2c1C=C1N=C(c2ccc(C)c(C)c2)OC1=O [Compound 19]
4,398,COC(=O)CN(C)C(=O)c1cc(Cl)c(OCC(C)C)c(OC)c1 [Compound 21]
5,891,CC1CCN(C(=O)CCc2ccc(Oc3cc([N+](=O)[O-])cc([N+](=O)[O-])c3)cc2)CC1 [Compound 22]
6,1410,O=C(CSc1n[nH]c(-c2ccccc2)n1)Nc1ncc(Br)cc1Br [Compound 40]
7,398,O=C(C=Cc1ccco1)Nc1cc(Cl)c(O)c(Cl)c1 [Compound 43]
8,1000,Cc1ccc2nc(Cl)c(CO)cc2c1 [Compound 46]
9,159,Cc1ccccc1OCc1nnc(SCC(N)=O)o1 [Compound 47]
10,447,CC1=NOC(=O)C1=Cc1ccc(-c2cc(Cl)ccc2Cl)o1 [Compound 62]
11,447,O=C(COc1ccc(F)cc1Cl)Nc1cccc(C(=O)NC2CC2)c1 [Compound 63]
12,1120,CC1=NOC(=O)C1=Cc1ccc(-c2ccc(Cl)cc2)o1 [Compound 64]
13,398,CCCCc1ccc(NC(=O)C2=CN3CCS(=O)(=O)N=C3C=C2)cc1 [Compound 67]
14,447,CCCCCCCCCOC(=O)c1ccc2c(c1)N(CCCS(=O)(=O)O)/C(=C\C=C\c1n(CCCS(=O)(=O)O)c3cc(C(=O)OCCCCCCCCC)ccc3[n+]1CC)N2CC [Compound 68]
15,562,COc1ccc(OC)c(NC(=O)Cc2cc(Cl)ccc2OC)c1 [Compound 69]
16,126,FC(F)(F)c1ccc(-c2nnco2)cc1 [Compound 73]
17,112,COc1cccc(NC(=O)N2CCC3(CC2)C(=O)N(CC(=O)NCc2ccc4c(c2)OCO4)CN3c2ccccc2)c1 [Compound 76]
18,501,CN1CCCc2cccc(C[S+]([O-])c3ncc[nH]3)c21 (stereo not shown) [Compound 82]
19,1260,CC(C)CC=NCCCCCCN=CCC(C)C [Compound 83]
20,1000,COc1ccc(C(=O)c2ccccc2O)c(O)c1 [Compound 85]
21,45,O=c1oc2c(O)c(O)cc3c(=O)oc4c(O)c(O)cc1c4c23 [Compound 86]

# Same assay, conditions: re-test of qHTS hits, Figure 2; read-out: IC50 from re-testing
row,IC50 [nM],Compound
1,> 10000,COc1ccc(N2CCN(C(=O)c3ccc(CSc4ccccc4)cc3)CC2)cc1 [Compound 6]

# Biological target: T1, human 15-PGDH
# Experiment: Substrate (PGE2) and cofactor (NAD+) titrations, mechanism of action, global fitting
# Type: biochemical
# Conditions: PGE2, absence of inhibitor
# Method: Kinetic studies were performed in 100 mM Tris buffer pH 8.0, containing 0.01% Tween-20 and 10 nM 15-PGDH enzyme. […] All inhibitor compounds were dissolved in 10% (v/v) DMSO at varying concentrations from which they were applied at 1∶5 ratio (resulting in a final concentration of 2% (v/v) DMSO in all assays). For each experiment an aliquot of purified enzyme was thawed freshly and pre-diluted to 10 µM in buffer I (5 mM Tris/HCl, pH 8.0, 150 mM NaCl, 0.01% Tween-20). All experiments were performed in white 384-well PCR microplates (Bio-Rad Laboratories, Inc.) in final assay volumes of 20 µL. Twelve-point compound titrations were set up from serially diluted stock solutions in 10% (v/v) DMSO. […] The initial rates recorded in compound titrations were plotted against -log[compound], and non-linear regression (Levenberg-Marquardt) fitting of the dose-response curve to the Hill equation [47] was performed to derive the IC50, using PRISM 5.0 (GraphPad Software, Inc.). For substrate/cofactor titrations, curves with initial rates plotted against the concentration of substrate or cofactor were fitted to the Michaelis-Menten equation, to derive maximal activities, V max, and Michaelis constants, K m. Fitting qualities were judged from the goodness of fit (R^2>0.98).
row,"catalytic efficiency, k cat/K m",Compound
1,2.5·10^6,"CCCCC[C@H](O)/C=C/[C@H]1[C@H](O)CC(=O)[C@@H]1C/C=C\CCCC(=O)O [PGE2, 15-hydroxyprostaglandin type-E2, reference compound]"

# Same assay, conditions: cofactor, absence of inhibitor; 30 µM PGE2
Titration of NAD^+ K m [µM],Titration of NAD^+ V max [µmol/(min×mg)] [µmol/min/mg],Titration of NAD^+ k cat/K m[×10^6],Titration of NAD^+ k cat[1/sec] [s⁻¹],Compound
15.8 ± 0.9,21.2,0.7 ×10^6,10.3 ± 0.1,NC(=O)c1ccc[n+]([C@@H]2O[C@H](COP(=O)([O-])OP(=O)(O)OC[C@H]3O[C@@H](n4cnc5c(N)ncnc54)[C@H](O)[C@@H]3O)[C@@H](O)[C@H]2O)c1 [NAD^+]

# Same assay, conditions: oxidation of PGE2, absence of inhibitor
row,"catalytic constant, k cat",Compound
1,about 14 per second,"CCCCC[C@H](O)/C=C/[C@H]1[C@H](O)CC(=O)[C@@H]1C/C=C\CCCC(=O)O [PGE2, 15-hydroxyprostaglandin type-E2, reference compound]"

# Same assay, conditions: substrate, absence of inhibitor
Titration of PGE2 K m [µM],Titration of PGE2 V max[µmol/(min×mg)] [µmol/min/mg],Titration of PGE2 k cat/K m[×10^6],Titration of PGE2 k cat[1/sec] [s⁻¹],Compound
5.5 ± 0.6,28.1,2.5 ×10^6,13.6 ± 0.3,"CCCCC[C@H](O)/C=C/[C@H]1[C@H](O)CC(=O)[C@@H]1C/C=C\CCCC(=O)O [PGE2, 15-hydroxyprostaglandin type-E2, reference compound]"

# Biological target: T1, human 15-PGDH
# Experiment: Differential scanning fluorimetry (DSF), thermal stabilization
# Type: binding
# Conditions: not given
# Method: A correlation between the ΔTm and the inhibitory potency has been shown in a number of protein-ligand systems, particularly for kinases [32]–[34].
# Studies to assess the thermal stability of human 15-PGDH in presence of compounds were performed as described previously, with variations. Briefly, the protein was diluted to a final assay concentration of 1 µM in 100 mM Tris buffer pH 8.0, containing 0.01% Tween-20 and 1∶1000 SYPRO orange dye (Invitrogen). […] Compounds were added at a ratio of 1∶5 from appropriate stock solutions in 10% (v/v) DMSO to comprise either 50 or 250 µM final concentrations. Heat denaturation curves were recorded using a RT-PCR instrument (Mx3005p, Agilent) applying a temperature gradient of 2°C/min. […] 2.5 (ftp://ftp.sgc.ox.ac.uk/pub/biophysics) and PRISM 5.0 (GraphPad Software, Inc.).
ΔTm in the presence of NAD+ [°C],ΔTm in the presence of NADH,Compound
2.4,no stabilization,"CCCCC[C@H](O)/C=C/[C@H]1[C@H](O)CC(=O)[C@@H]1C/C=C\CCCC(=O)O [PGE2, 15-hydroxyprostaglandin type-E2, reference compound]"

# Same assay, conditions: in words
row,stabilization without cofactor,Compound
1,failed to stabilize,"CCCCC[C@H](O)/C=C/[C@H]1[C@H](O)CC(=O)[C@@H]1C/C=C\CCCC(=O)O [PGE2, 15-hydroxyprostaglandin type-E2, reference compound]"

# Same assay, conditions: pH 8.0; ligand-free Tm 41.2±0.3°C
row,Tm of 15-PGDH in the presence of cofactor [°C],Compound
1,52.5±0.4,"NC(=O)C1=CN([C@@H]2O[C@H](COP(=O)(O)OP(=O)(O)OC[C@H]3O[C@@H](n4cnc5c(N)ncnc54)[C@H](O)[C@@H]3O)[C@@H](O)[C@H]2O)C=CC1 [NADH, reference compound]"

# Same assay, conditions: versus ligand-free 15-PGDH, pH 8.0
row,increase of stability by cofactor,Compound
1,more than 10 °C,"NC(=O)C1=CN([C@@H]2O[C@H](COP(=O)(O)OP(=O)(O)OC[C@H]3O[C@@H](n4cnc5c(N)ncnc54)[C@H](O)[C@@H]3O)[C@@H](O)[C@H]2O)C=CC1 [NADH, reference compound]"
2,more than 4 °C,NC(=O)c1ccc[n+]([C@@H]2O[C@H](COP(=O)([O-])OP(=O)(O)OC[C@H]3O[C@@H](n4cnc5c(N)ncnc54)[C@H](O)[C@@H]3O)[C@@H](O)[C@H]2O)c1 [NAD^+]
